Reference: patent US5877185A, “Synergistic compositions useful as anti-tumor agents” (priority 1995, dated 1999)
Read-outs that look alike come from different tables or passages of the source.

What was measured:
E ras cells = experiment: cytostatic and cytocidal activity; format: cell-based, bovine; details: for cytostatic and cytocidal effects: at the concentrations given above; for IC50: Bos taurus, average of three trials
Text: pADPRT ligands that oxidize CCHC zinc fingers are not unique inhibitors of pADPRT. […] Hakam et al., FEBS Lett. 193:1-4 (1991). These ligands bind non-covalently to the nicotinamide site and internal DNA-seeking domains of pADPRT. Bauer et al., manuscript in preparation (1994). In contrast, CCHC-oxidizing ligands also bind non-covalently to the nicotinamide site, but initially attack the F1 zinc finger oxidatively. Id. […] Id. […] U.S. Ser. No. 08/076,313 filed Jun. 11, 1993.
Each value is the average of three trials. Each trial deviated from the average by no more than twenty percent. […] Another isomer of the iodo-nitro-benzamide series, 2-iodo-4-nitrobenzamide had no effect at the concentrations given above.

MT-2 cells = experiment: effectiveness on human T-lymphoblastoid leukemia cells, MT-2; format: cell-based; details: for IC50: Homo sapiens, MT2, concentration decreasing cell viability to 50% of control, 48 h incubation, read-out: I50; for LD100: zero viability after 48 hours of incubation
Experimental: (§1) IV. Effectiveness of 4-(halogen)-3-nitro-benzamide compounds as tested with human T-lymphoblastoid leukemia cell lines in culture.
(§2) Cells (MT-2 cells, or, in case of 3-fluoro-4-nitro-benzamide, CEM-4 cells) were seeded at a density of 0.1×10^5 /ml; the drugs were added at the time of seeding. The cultures were incubated at 37° C. in a 5% CO2 atmosphere and the cells numbers were monitored by hemacytometer counting in 24 hr intervals.

CEM-4 cells = experiment: effectiveness on human T-lymphoblastoid leukemia cells, CEM-4; format: cell-based
Experimental: as §1, §2

Molt-4 cells = experiment: time course of cell killing alone and with BSO, Molt-4; format: cell-based; details: Molt-4, 2-3 day period; 4 μM drug, 1 mM BSO
Experimental: (§3) Molt 4-cells were seeded at a density of 0.05×10^6 cell/ml in the recommended growth medium in the absence or the presence of drugs as indicated. Cells were incubated at 37° C. in a 5% CO2 atmosphere and proliferation was monitored in 14 hr. by cell counting in a hemacytometer. .smallcircle., untreated control; .circle-solid., treated with 4 μM 4-iodo-3-nitrobenzoic acid; .gradient., treated with 1 mM BSO; .tangle-soliddn., treated with 4 μM-iodo-3-nitrobenzoic acid and 1 mM BSO; .quadrature., treated with 4 μM 4-INO2 BA; .box-solid., treated with 1 mM BSO; .gradient., treated with 4 μM INO2 BA and 1 mM BSO. L-1210 cells were seeded at a density of 0.05×10^6 cells/ml either from untreated stock suspensions or from 24-hr. pretreated (0.2×10^6 cells/ml) suspensions. .smallcircle., untreated control; .circle-solid., treated with […] NOBA; .gradient., treated with 1 mM BSO; .tangle-soliddn., 24-hr pretreatment with 1 mM BSO then treated with 4 μM NOBA.
(§4) A time course of the cell killings by 4-iodo-3-nitrobenzoic acid, INO2 BA and NOBA, each alone and in combination with BSO was obtained. Molt-4 cells were seeded at a density of 0.05×10^6 cells/ml in the recommended growth medium in the absence or presence of drugs as indicated in FIG. 3. Drugs were added to the wells immediately after seeding from 10-40 mM stock solution in DMSO. BSO was added from a 100 mM aqueous stock solution. Cells were incubated at 37° C. in a 5% CO2 atmosphere and proliferation was monitored in 14 hours by cell counting in a hemacytometer.

[1] = system: L-1210 Murine Leukemia Cells; experiment: effect of nitroso- and nitro-compounds in L-1210 murine leukemia cells (suspension); format: cell-based; details: drug exposure 18 hours
Experimental: II. I50 and LD100 Values for Nitroso- and Nitro-Compounds in (A) Mammary Cancer Cells (monolayer cultures) and in (B) L-1210 Murine Leukemia Cells (suspension culture).
Cells were seeded at 5×10^4 to 2×10^5 /ml; drugs were added at the time of seeding; drug exposure was for 18 hours.

L-1210 cells = experiment: time course of cell killing alone and with BSO, L-1210; format: cell-based, murine; details: L-1210, 2-3 day period; 1 mM BSO
Experimental: as §3, §4

AA-2 leukemia cells = experiment: cytocidal effect in combination with ascorbate
Experimental: Because of the in vitro reactivity of the nitroso group of INOBA with both ascorbate and GSH, the apoptosis-inducing effect of NOBA with the action of the prodrug INO2 BA in the presence of ascorbate, added simultaneously with both drugs was compared.
AA-2 cells were seeded at a density of 0.2×10^6 cells/ml. Drugs and/or sodium ascorbate were added at the time of seeding, and cells were counted by hemacytometer after incubation (37° C., 5% CO^2) for 18 hr (Day 1) and for 42 hr (Day 2). Viability was evaluated by Trypan Blue exclusion.

[2] = solubility and stability of nitro versus nitroso compound; format: physicochemical
HIV-1 (LAV strain) = experiment: in vitro anti-retroviral testing (HIV-1 inactivation) in human peripheral lymphocytes (PBL); format: cell-based
Experimental: Both 6-NOBP and NOBA were tested on viral growth of HIV-1 (LAV strain) in phytohemagglutinin-stimulated human peripheral lymphocytes (PBL). An HIV-1 stock having an infectivity titer of 100,000 TCID50 was incubated for 30 min. at 22° C. with either of the drugs. Control HIV samples, containing no drugs, were incubated in the same manner. […] At the end of this incubation cultures were assayed for productive infection by an immunoassay for HIV-1 antigens and by reverse transcriptase as described in McDougal et al., J. Immunol. Methods 76:171-183 (1985). Virus titers were expressed as percentile values (percent infected cultures) compared to the controls, containing HIV dilutions which were not preincubated with the C-nitroso drugs. In a separate series of experiments, HIV-1 dilutions and C-nitroso drugs (see upper abscissa) were not preincubated but were added simultaneously to lymphocytes in exactly the same concentrations as described previously (i.e., following preincubation) and viral growth monitored 9 days later.

[3] = system: human immunodeficiency virus HIV-1; details: human lymphocytes; cited from earlier work
[4] = system: normal bone marrow progenitor cells; details: tumoricidal concentrations; cited from earlier work
neutrophil granulocytes = details: tumoricidal concentrations; cited from earlier work
[5] = system: leukemic and other malignant human cells; details: cited from earlier work
HIV-1 NC zinc fingers = details: isolated HIV-1 NC zinc fingers and intact HIV-1 virions; cited from earlier work

NC(=O)c1ccc([N+](=O)[O-])cc1I [2-iodo-4-nitrobenzamide]
cytostatic and cytocidal effects (E ras cells): no effect

NC(=O)c1cc([N+](=O)[O-])ccc1I [2-iodo-5-nitrobenzamide]
IC50 (E ras cells; E ras cells, read-out: Cytostatic Effect I50): 12 µM | IC50 (E ras cells; with 0.8 mM BSO, read-out: Cytocidal Effect I50): 2 µM | cytostatic and cytocidal effects (E ras cells): more effective of the two isomers

NC(=O)c1ccc(Br)c([N+](=O)[O-])c1 [4-bromo-3-nitro-benzamide]
IC50 (MT-2 cells): 120 µM | LD100 (MT-2 cells): 290

NC(=O)c1ccc(Cl)c([N+](=O)[O-])c1 [4-chloro-3-nitro-benzamide]
IC50 (MT-2 cells): 130 µM | LD100 (MT-2 cells): 300

NC(=O)c1ccc(F)c([N+](=O)[O-])c1 [4-fluoro-3-nitro-benzamide]
IC50 (CEM-4 cells; Homo sapiens, concentration decreasing cell viability to 50% of control, read-out: I50): 120 µM | LD100 (CEM-4 cells; zero viability after 48 hours of incubation): 280

O=C(O)c1ccc(I)c([N+](=O)[O-])c1 [4-iodo-3-nitrobenzoic acid]
effect on cell proliferation (Molt-4 cells): no significant effect | I50 [1]: 16 nanomoles/10^5 cells | LD100 [1]: 32 nanomoles/10^5 cells | effect on cell proliferation (L-1210 cells): no significant effect

O=C1O[C@H]([C@@H](O)CO)C([O-])=C1O.[Na+] [Ascorbate, sodium ascorbate, reference compound]
effect on AA-2 leukemia cells by itself (AA-2 leukemia cells; 160 μM): no effect | cell number Day 1 (AA-2 leukemia cells; ascorbate 160 μM, 18 hr): 480000 mL⁻¹ | cell number Day 2 (AA-2 leukemia cells; ascorbate 160 μM, 42 hr): 900000 mL⁻¹

O=c1ccc2cc([N+](=O)[O-])ccc2o1 [NO2 BP, 6-Nitro-1,2-benzopyrone]
stability and solubility [2]: more stable and soluble than the active nitroso compound | I50 [1]: 35 nanomoles/10^5 cells | LD100 [1]: 80 nanomoles/10^5 cells | inhibition of HIV-1 activity in human lymphocytes (HIV-1 (LAV strain)): 52% | TCID50 (calculated infectious titer after treatment) (HIV-1 (LAV strain); 500 μM): 85,114 TCID50 | inhibition at 500 µM (HIV-1 (LAV strain); Human immunodeficiency virus 1, Lymphocyte): 52.1% | log reduction at 500 µM (HIV-1 (LAV strain); Human immunodeficiency virus 1, Lymphocyte, 0.5 h, read-out: Decrease): 0.32

O=Nc1ccc2oc(=O)ccc2c1 [NOBP, 6-nitroso-1,2-benzopyrone]
stability and solubility [2]: poorly soluble | inhibition of HIV-1 infection [3]: inhibit infection | effect on normal bone marrow progenitor cells [4]: relatively harmless | effect on superoxide formation by neutrophil granulocytes (neutrophil granulocytes): relatively harmless | suppression of proliferation [5]: completely suppressed | TCID50 (calculated infectious titer after treatment) (HIV-1 (LAV strain); 100 μM): 102 TCID50 | log reduction at 100 µM (HIV-1 (LAV strain); Human immunodeficiency virus 1, Lymphocyte, 0.5 h, 100 μM, of TCID50, read-out: Decrease): 3.24 | inhibition at 100 µM (HIV-1 (LAV strain); Human immunodeficiency virus 1, Lymphocyte, 100 μM): 99.9% | zinc ejection (HIV-1 NC zinc fingers): eject zinc
